Test results taken from US10556866B2, “ROR gamma (RORγ) modulators” (LEAD PHARMA HOLDING B.V., priority 2015, dated 2020).

Molecular target: T1, RORγ (Homo sapiens, UniProt P51449)
T1 construct: expressed in transfected cells; host or cells: 293FT cells (Invitrogen), expression vector pFN26A (Promega)
T1 sequence (P51449 269-508 limits assumed): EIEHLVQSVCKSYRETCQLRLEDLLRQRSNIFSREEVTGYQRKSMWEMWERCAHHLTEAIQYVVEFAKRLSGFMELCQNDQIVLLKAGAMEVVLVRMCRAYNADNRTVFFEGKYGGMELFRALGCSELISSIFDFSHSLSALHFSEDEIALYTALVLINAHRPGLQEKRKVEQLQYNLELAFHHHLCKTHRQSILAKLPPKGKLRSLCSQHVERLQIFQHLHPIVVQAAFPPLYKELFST
Assay: RORγ GAL4 reporter gene assay (luciferase readout)
Format: cell-based
Settings: inhibition of RORγ (GAL4-RORγ-LBD) in 293FT cells, luciferase signal; read-out: mean pIC50 (converted)
Method: Example inhibitors 1-38 were tested for their ability to inhibit RORγ activity in a RORγ GAL4 reporter gene assay. The assay procedure and results are described below.
A GAL4 one-hybrid reporter system employing luciferase readout was established to determine inhibition of RORγ in 293FT cells. The RORγ ligand-binding domain (LBD) was fused to the yeast GAL4 DNA binding domain (DBD) and placed under the control of the human cytomegalovirus (CMV) immediate early promoter, using expression vector pFN26A (Promega) and standard recombinant DNA cloning methods. To serve as a control in the assay, a similar vector was generated in which the GAL4-DBD was fused to Herpes simplex virus protein 16 (VP16), a constitutive transcriptional activator.
To monitor the inhibitory effect of compounds on RORγ, a transcriptional reporter construct was used. The pGL4.35 vector (Promega) contains nine copies of the GAL4 Upstream Activator Sequence (UAS). This sequence drives the transcription of the luciferase reporter gene luc2P in response to binding of a fusion protein containing the GAL4 DNA binding domain, as for example expressed by the GAL4-RORγ-LBD and GAL4-VP16 expression vectors described above. To allow a GAL4 fusion protein to drive the expression of the luciferase reporter, the pGL4.35 expression vector and the appropriate GAL4 fusion protein expression vector were bulk transfected in the 293FT cells using standard transfection techniques.
The day after transfection, cells were plated into 96 well plates, test compound was added and the plates were incubated overnight. Subsequently, the firefly luciferase activity was quantified using luciferase detection reagent and luminescence readout.
293FT cells (Invitrogen) were transfected with a GAL4 fusion protein expression vector (as described above) and the transcriptional reporter construct (pGL4.35, Promega). 60 μL of TransIT-293 transfection reagent (Mirus Bio) was added drop wise to 1500 μl Opti-MEM I Reduced Serum Medium (Invitrogen) and incubated at RT (RT) for 5 to 20 minutes. 1500 μL of this reagent mixture was added to 5 μg of GAL4 fusion protein expression vector and 5 μg of the transcriptional reporter construct, and incubated at RT for 20 minutes.
To harvest 293FT cells from a T75 flask, first the culture medium was taken off the cells. Subsequently, the cells were washed with Phosphate Buffered Saline (PBS) (Lonza), after which the PBS was removed. To dissociate the cells, 1 ml of TrypLE Express (Invitrogen) was added to the flask, followed by incubation at RT until the cells visually started to detach. Cells were collected in 5 mL of assay medium (DMEM culture medium (Lonza), 10% dialyzed FBS (Invitrogen) and Pen/Strep (Lonza)) to achieve a single cell suspension. 10×10^6 cells were spun down and re-suspended in 10 mL of assay medium. Subsequently, the cell suspension was added to the transfection mix tube, and then transferred as a whole to a T75 flask (Greiner), followed by overnight (16-24 hours) incubation at 37° C. and 5% CO2.
For compound screening, the cells were harvested (as described above) and counted. 13×10^6 cells were spun down, the supernatant was aspirated and the cells were re-suspended in 17.3 mL of assay medium obtaining a cell suspension of 0.75×10^6 cells/mL. 80 μL of cell suspension (60,000 cells) was plated per well into a white, flat bottom, tissue culture treated, 96 well screening plates (Greiner).
Test compounds were diluted, starting from a 10 mM dimethylsulfoxide (DMSO) stock solution, to serial dilutions in DMSO at 500× the final test concentration. Subsequently, these solutions were diluted to 5× the final test concentration in two 10-fold-dilution steps in assay medium. The final DMSO concentration of the 5× test compound solution was 1%. 20 μL of the 5× test compound solution was added to each test well of the 96 well plate previously plated with 80 μl cell suspension, resulting in the final test concentration with 0.2% DMSO. […]

Q: Which IC50 does the source give for CCC(O)(c1ccc(C(=O)NCc2ccc(S(=O)(=O)CC3CC3)cc2)cc1)C(F)(F)F (racemic) [(+)-1, (+)-N-[[4-(cyclopropylmethylsulfonyl)phenyl]methyl]-4-[1-hydroxy-1-(trifluoromethyl)propyl]benzamide] here?
A: ≤ 100 nM

Q: For CCC(O)(c1ccc(C(=O)NCc2ccc(S(=O)(=O)CC3CC3)cc2)cc1)C(F)(F)F (racemic) [(−)-1, (−)-N-[[4-(cyclopropylmethylsulfonyl)phenyl]methyl]-4-[1-hydroxy-1-(trifluoromethyl)propyl]benzamide], which IC50 is on record?
A: ≤ 1000 nM

Q: For CCC(O)(c1ccc(C(=O)NCc2ccc(S(=O)(=O)CC3CC3)cc2)cc1)C(F)(F)F (racemic) [Example 1, N-[[4-(cyclopropylmethylsulfonyl)phenyl]methyl]-4-[1-hydroxy-1-(trifluoromethyl)propyl]benzamide], which IC50 is on record?
A: ≤ 100 nM

Q: Which IC50 does the source give for CC(O)(c1ccc(C(=O)NCc2ccc(S(=O)(=O)CC3CC3)cc2)cc1)C(F)(F)F (stereo not drawn) [Example 2, N-[[4-(cyclopropylmethylsulfonyl)phenyl]methyl]-4-(2,2,2-trifluoro-1-hydroxy-1-methyl-ethyl)benzamide] here?
A: ≤ 1000 nM

Q: CC(C)(O)c1ccc(C(=O)NCc2ccc(S(=O)(=O)CC3CC3)cc2)cc1 [Example 3, N-[[4-(cyclopropylmethylsulfonyl)phenyl]methyl]-4-(1-hydroxy-1-methyl-ethyl)benzamide] was tested. Which IC50 did it give?
A: > 10000 nM

Q: O=C(NCc1ccc(S(=O)(=O)CC2CC2)cc1)c1ccc(C(O)(C(F)(F)F)C(F)(F)F)cc1 [Example 4, N-[[4-(cyclopropylmethylsulfonyl)phenyl]methyl]-4-[2,2,2-trifluoro-1-hydroxy-1-(trifluoromethyl)ethyl]benzamide] was tested. Which IC50 did it give?
A: ≤ 100 nM

Q: Which IC50 does the source give for CCCC(O)(c1ccc(C(=O)NCc2ccc(S(=O)(=O)CC3CC3)cc2)cc1)C(F)(F)F (stereo not drawn) [Example 6, N-[[4-(cyclopropylmethylsulfonyl)phenyl]methyl]-4-[1-hydroxy-1-(trifluoromethyl)butyl]benzamide] here?
A: ≤ 100 nM

Q: Which IC50 does the source give for CCCCC(O)(c1ccc(C(=O)NCc2ccc(S(=O)(=O)CC3CC3)cc2)cc1)C(F)(F)F (stereo not drawn) [Example 7, N-[[4-(cyclopropylmethylsulfonyl)phenyl]methyl]-4-[1-hydroxy-1-(trifluoromethyl)pentyl]benzamide] here?
A: ≤ 100 nM

Q: With CC(C)CC(O)(c1ccc(C(=O)NCc2ccc(S(=O)(=O)CC3CC3)cc2)cc1)C(F)(F)F (stereo not drawn) [Example 8, N-[[4-(cyclopropylmethylsulfonyl)phenyl]methyl]-4-[1-hydroxy-3-methyl-1-(trifluoromethyl)butyl]benzamide] as the molecule, how does the IC50 read?
A: ≤ 100 nM

Q: CC(C)(C)CC(O)(c1ccc(C(=O)NCc2ccc(S(=O)(=O)CC3CC3)cc2)cc1)C(F)(F)F (stereo not drawn) [Example 9, N-[[4-(cyclopropylmethylsulfonyl)phenyl]methyl]-4-[1-hydroxy-3,3-dimethyl-1-(trifluoromethyl)butyl]benzamide] was tested. Which IC50 did it give?
A: ≤ 100 nM

Q: How did the IC50 turn out when CC(C)C(O)(c1ccc(C(=O)NCc2ccc(S(=O)(=O)CC3CC3)cc2)cc1)C(F)(F)F (stereo not drawn) [Example 10, N-[[4-(cyclopropylmethylsulfonyl)phenyl]methyl]-4-[1-hydroxy-2-methyl-1-(trifluoromethyl)propyl]benzamide] was run?
A: ≤ 100 nM

Q: With O=C(NCc1ccc(S(=O)(=O)CC2CC2)cc1)c1ccc(C(O)(C2CC2)C(F)(F)F)cc1 (stereo not drawn) [Example 11, N-[[4-(cyclopropylmethylsulfonyl)phenyl]methyl]-4-(1-cyclopropyl-2,2,2-trifluoro-1-hydroxy-ethyl)benzamide] as the molecule, how does the IC50 read?
A: ≤ 100 nM

Q: How did the IC50 turn out when O=C(NCc1ccc(S(=O)(=O)CC2CC2)cc1)c1ccc(C(O)(C2CCCC2)C(F)(F)F)cc1 (stereo not drawn) [Example 12, 4-(1-cyclopentyl-2,2,2-trifluoro-1-hydroxy-ethyl)-N-[[4-(cyclopropylmethylsulfonyl)phenyl]methyl]benzamide] was run?
A: ≤ 100 nM

Q: O=C(NCc1ccc(S(=O)(=O)CC2CC2)cc1)c1ccc(C(O)(c2ccccc2)C(F)(F)F)cc1 (stereo not drawn) [Example 13, N-[[4-(cyclopropylmethylsulfonyl)phenyl]methyl]-4-(2,2,2-trifluoro-1-hydroxy-1-phenyl-ethyl)benzamide] was tested. Which IC50 did it give?
A: ≤ 1000 nM

Q: Which IC50 does the source give for O=C(NCc1ccc(S(=O)(=O)CC2CC2)cc1)c1ccc(C(O)(Cc2ccccc2)C(F)(F)F)cc1 (stereo not drawn) [Example 14, 4-(1-benzyl-2,2,2-trifluoro-1-hydroxy-ethyl)-N-[[4-(cyclopropylmethylsulfonyl)phenyl]methyl]benzamide] here?
A: ≤ 100 nM

Q: For Cc1cc(C(=O)NCc2ccc(S(=O)(=O)CC3CC3)cc2)ccc1C(O)(C(F)(F)F)C(F)(F)F [Example 15, N-[[4-(cyclopropylmethylsulfonyl)phenyl]methyl]-3-methyl-4-[2,2,2-trifluoro-1-hydroxy-1-(trifluoromethyl)ethyl]benzamide], which IC50 is on record?
A: ≤ 100 nM

Q: How did the IC50 turn out when CCC(O)(c1ccc(C(=O)NCc2ccc(S(=O)(=O)CC)cc2)cc1)C(F)(F)F (stereo not drawn) [Example 17, N-[(4-ethylsulfonylphenyl)methyl]-4-[1-hydroxy-1-(trifluoromethyl)propyl]benzamide] was run?
A: < 10000 nM

Q: CCS(=O)(=O)c1ccc(CNC(=O)c2ccc(C(O)(CC(C)(C)C)C(F)(F)F)cc2)cc1 (stereo not drawn) [Example 18, N-[(4-ethylsulfonylphenyl)methyl]-4-[1-hydroxy-3,3-dimethyl-1-(trifluoromethyl)butyl]benzamide] was tested. Which IC50 did it give?
A: ≤ 1000 nM

Q: For CCS(=O)(=O)c1ccc(CNC(=O)c2ccc(C(O)(C(F)(F)F)C(F)(F)F)cc2)cc1 [Example 19, N-[(4-ethylsulfonylphenyl)methyl]-4-[2,2,2-trifluoro-1-hydroxy-1-(trifluoromethyl)ethyl]benzamide], which IC50 is on record?
A: < 10000 nM

Q: How did the IC50 turn out when CCCCC(O)(c1ccc(C(=O)NCc2ccc(S(=O)(=O)NC3CC3)cc2)cc1)C(F)(F)F (stereo not drawn) [Example 20, N-[[4-(cyclopropylsulfamoyl)phenyl]methyl]-4-[1-hydroxy-1-(trifluoromethyl)pentyl]benzamide] was run?
A: ≤ 1000 nM

Q: How did the IC50 turn out when O=C(NCc1ccc(S(=O)(=O)NC2CC2)cc1)c1ccc(C(O)(C(F)(F)F)C(F)(F)F)cc1 [Example 21, N-[[4-(cyclopropylsulfamoyl)phenyl]methyl]-4-[2,2,2-trifluoro-1-hydroxy-1-(trifluoromethyl)ethyl]benzamide] was run?
A: ≤ 1000 nM

Q: With COC(c1ccc(C(=O)NCc2ccc(S(=O)(=O)CC3CC3)cc2)cc1)(C(F)(F)F)C(F)(F)F [Example 22, N-[[4-(cyclopropylmethylsulfonyl)phenyl]methyl]-4-[2,2,2-trifluoro-1-methoxy-1-(trifluoromethyl)ethyl]benzamide] as the molecule, how does the IC50 read?
A: ≤ 100 nM

Q: CCOC(c1ccc(C(=O)NCc2ccc(S(=O)(=O)CC3CC3)cc2)cc1)(C(F)(F)F)C(F)(F)F [Example 23, N-[[4-(cyclopropylmethylsulfonyl)phenyl]methyl]-4-[1-ethoxy-2,2,2-trifluoro-1-(trifluoromethyl)ethyl]benzamide] was tested. Which IC50 did it give?
A: ≤ 100 nM

Q: Which IC50 does the source give for CCCOC(c1ccc(C(=O)NCc2ccc(S(=O)(=O)CC3CC3)cc2)cc1)(C(F)(F)F)C(F)(F)F [Example 24, N-[[4-(cyclopropylmethylsulfonyl)phenyl]methyl]-4-[2,2,2-trifluoro-1-propoxy-1-(trifluoromethyl)ethyl]benzamide] here?
A: ≤ 100 nM
